Reference: patent US20200157086A1, “BENZAMIDE COMPOUNDS AND THEIR USE AS HERBICIDES” (BASF SE, priority 2017, published 2020)

Experiments:
Test in all cases: post-emergence greenhouse test of herbicidal activity
Type in all cases: in vivo
Conditions in all cases: application rate 250 g/ha, 100 = complete destruction, 0 = no damage
[1] = test system: CHEAL (Chenopodium album)
Source text: (§1) The seeds of the test plants were sown separately for each species. For the post-emergence treatment, the test plants were first grown to a height of 3 to 15 cm, depending on the plant habit, and only then treated with the active ingredients which had been suspended or emulsified in water. For this purpose, the test plants were either sown directly and grown in the same containers, or they were first grown separately as seedlings and transplanted into the test containers a few days prior to treatment. Depending on the species, the plants were kept at 10-25° C. or 20-25° C., respectively. The test period extended over 2 to 4 weeks. During this time, the plants were tended, and their response to the individual treatments was evaluated. Evaluation was carried out using a scale from 0 to 100. 100 means no emergence of the plants, or complete destruction of at least the aerial moieties, and 0 means no damage, or normal course of growth. A good herbicidal activity is given at values of at least 70 and a very good herbicidal activity is given at values of at least 85. At an application rate of 250 g/ha the following compounds were tested in post-emergence tests against: […]

[2] = test system: ECHCG (Echinocloa crus-galli)
Source text: as §1

[3] = test system: AMARE (Amaranthus retroflexus)
Source text: as §1

[4] = test system: ALOMY (Alopecurus myosuroiedes)
Source text: as §1

Question: Which “herbicidal activity against CHEAL, scale from 0 to 100” value [1] does the source give for `CCN(C)C(=O)Nc1c(Cl)ccc(C(=O)Nc2nnnn2C)c1C` [compound 3, 4-chloro-3-[[ethyl(methyl)carbamoyl]amino]-2-methyl-N-(1-methyltetrazol-5-yl)benzamide] here?
Answer: The value was 100.

Question: What about the “herbicidal activity against ECHCG, scale from 0 to 100” value [2] of the same molecule?
Answer: Its value is 100.

Question: And the “herbicidal activity against AMARE, scale from 0 to 100” value [3]?
Answer: The value was 100.

Question: What about the “herbicidal activity against ALOMY, scale from 0 to 100” value [4] of the same molecule?
Answer: Its value is 98.
